{
  "source": "patent US10342806B2",
  "about": "“Hormone treatment for age-related hearing loss-presbycusis” (priority 2014, dated 2019)",
  "key": {"CBA mice": {"test_system": "CBA mice", "conditions": "ALD-treated aging CBA mice (Halonen et al. 2014); cited from earlier work"}, "NKCC1 [1]": {"test_system": "NKCC1", "assay": "86Rb uptake in HT-29 cells", "type": "cell-based, human", "conditions": "HT-29 cells, 2, 4, 8, and 12 h after ALD", "procedure": "Cell culture and buffers. […] Arch Oral Biol 52: 411-416, 2007). […] J Cell Sci 112: […], 1999, Epple, et al., Early aldosterone effect in distal colon by transcriptional regulation of ENaC subunits. Am J Physiol Gastrointest Liver Physiol 278: […] Am J Physiol Cell Physiol 305: […]-[…], 2013). HT-29 cells were grown in DMEM media (Invitrogen, Carlsbad Calif.) with 10% FBS and antibiotics. Cells were grown in a humidified 95%/5% CO2 incubator at 37° C. Experiments were performed at 70-80% confluence. ^86Rb uptake. Similar to previous studies of NKCC1 activity (Gagnon & Delpire, Molecular determinants of hyperosmotically activated NKCC1-mediated K_/K_exchange. J Physiol 588: 3385-3396, 2010), cells were plated on six-well dishes and incubated at 37° C./5% CO2 until confluent. For the uptake, cells were first washed twice with 1 ml of isosmotic saline (140 mM NaCl, 5 mM KCl, 2 mM CaCl2, 0.8 mM MgSO4, 5 mM glucose, 5 mM HEPES buffered to pH 7.4, and 300.5 mosM). […] After a 20-min uptake, the radioactive solution was aspirated, and the cells were washed three times with 1 ml of ice-cold solution, lysed for 1 h with 500 μl of 0.25 N NaOH, and neutralized with 250 μl of glacial acetic acid. ^86Rb tracer activity was measured by using 150 μl of lysate for γ-scintillation counting. […]"}, "NKCC1 [2]": {"test_system": "NKCC1", "assay": "NKCC1 protein expression in HT-29 cells, Western blot", "type": "cell-based, human", "from_the_text": "Cell culture and buffers. […] Arch Oral Biol 52: 411-416, 2007). These include, for example, studies of COMM domain-containing protein 1, which is involved in NKCC1 ubiquitination and transcriptional regulation of epithelial Na^+ channels (ENaC) located in the apical membrane of polarized epithelial cells, in particular, cells in the colon, kidney, and lung, by ALD (Cohen, et al., Induced differentiation in HT29, a human colon adenocarcinoma cell line. J Cell Sci 112: […], 1999, Epple, et al., Early aldosterone effect in distal colon by transcriptional regulation of ENaC subunits. Am J Physiol Gastrointest Liver Physiol 278: G718-G724, 2000, Smith, et al., COMMD1 interacts with the COOH terminus of NKCC1 in Calu-3 airway epithelial cells to modulate NKCC1 ubiquitination. Am J Physiol Cell Physiol 305: C133-C146, 2013). HT-29 cells were grown in DMEM media (Invitrogen, Carlsbad Calif.) with 10% FBS and antibiotics. Cells were grown in a humidified 95%/5% CO2 incubator at 37° C. Experiments were performed at 70-80% confluence.\nWestern blot. Cell lysates were prepared in RIPA buffer (Pierce 89901; Thermo Scientific, Waltham, Mass.) with protease inhibitor cocktail (78430; Thermo Scientific). Cell samples were homogenized in buffer, followed by centrifugation at 2,000 rpm for 10 min at 4° C. Supernatants were subjected to Western blot analysis by loading 200 μg of protein per lane, after the protein concentrations were determined by Bradford protein assay. Proteins were fractionated by SDS-PAGE gel electrophoresis and transferred to a PVDF blotting membrane (Whatman, Piscataway, N.J.). The blot was incubated with primary antibodies against β-actin and Na—K-2C1 cotransport protein (Cell Signaling, Danvers Mass.); primary antibodies for p-SGK1, SGK1, pNedd4-2, and Nedd4-2 were utilized (concentration 1:1,000). The secondary antibody was horseradish peroxidaseconjugated goat anti-rabbit IgG (1:2,000; Cell Signaling).\nStatistical analysis. Images from films were imported into Adobe Photoshop (v 5.0), and further processed using Adobe Photoshop CS and ImageJ (National Institutes of Health) for the densitometry analysis. Data are reported as means±SD. Statistical analyses were performed with PRISM 4.0 (GraphPad Software, San Diego Calif.). Differences were analyzed with a one- or a two-way repeated measures ANOVA as appropriate or a two-way ANOVA followed by Bonferroni post hoc analyses that were corrected for multiple comparisons. Values of P <0.05 were considered significant."}},
  "data": [
    {"smiles": "C[C@]12CCC(=O)C=C1CC[C@@H]1[C@@H]2[C@@H](O)C[C@]2(C=O)[C@@H](C(=O)CO)CC[C@@H]12", "note": "[ALD, aldosterone]", "values": [
      {"measurement": "auditory temporal processing (prepulse inhibition)", "setting": "CBA mice", "value": "provocative increases in auditory temporal processing"},
      {"measurement": "NKCC1 protein activity (86Rb uptake)", "setting": "NKCC1 [1]", "value": "upregulated NKCC1 protein activity"},
      {"measurement": "induction of NKCC1 protein expression", "setting": "NKCC1 [2]; ALD 1 μM, MG-132 20 μM, CQ 50 μM, 9 h", "value": "induce NKCC1 protein expression similarly"},
      {"measurement": "decline of NKCC1 protein levels in response to cycloheximide", "setting": "NKCC1 [2]; ALD 1 μM, cycloheximide 20 μg/ml, 3, 6, or 9 h, relative to nontreated cells", "value": "much slower"},
      {"measurement": "threshold of NKCC1 induction (significant response)", "setting": "NKCC1 [2]; HT-29 cells", "value": "~10", "unit": "pM"},
      {"measurement": "time by which NKCC1 up-regulation took effect", "setting": "NKCC1 [2]; HT-29 cells, ALD 1 μM", "value": "≤ 2", "unit": "h"},
      {"measurement": "NKCC1 protein expression levels", "setting": "NKCC1 [2]; HT-29 cells, ALD 1 μM, stable over 12-24 h", "value": "upregulated"},
      {"measurement": "start of NKCC1 induction after treatment", "setting": "NKCC1 [2]; HT-29 cells, ALD (1 nM)", "value": "30 to 40", "unit": "min"}
    ]}
  ]
}
